Legend:
B16F10 melanoma = B16F10 melanoma with pmel-1 donor splenocytes (adoptive T cell therapy): tumor size and tumor flow cytometry; format: in vivo, C57BL/6 mice
Text: For the study, 0.2×10^6 B16F10 melanoma cells/mouse were implanted on day −8 on flanks of C57BL/6 female mice. On day 0, when tumor size had reached about 80 mm3, mice were randomized into 3 groups with an n=12/group. All mice in the three groups were subjected to whole body irradiation with 5.0 Gy for lymphodepletion. […] gp100 specific donor splenocytes were harvested from C57BL/6 pmel-1 donor mice (The Jackson Laboratory, world wide web.jax.org/strain/005023). Briefly, splenocytes comprising immune cells such as T cells from spleens of 18 pmel-1 female C57BL/6 mice (Jackson labs) were harvested yielding˜90 Million splenocytes. The pmel-1 splenocytes were isolated, the red blood cells lysed, and the remaining splenocytes expanded and activated with IL-2 and gp100 antigen for 4 days in vitro, and administered to the B16 melanoma bearing mice by i.v. On day 7, mice were sacrificed, and tumor, spleen, and blood samples were collected. Tumor size of all three treatment groups were measured on days 0, 2, 5 and 7 (FIGS. 6 and 7). […] After mice were sacrificed, tumor samples were tested for the fraction of several live immune cells (CD45+ cells) in the tumor. Briefly, tumors were harvested, and samples digested with tumor digestion mix and cells collected and washed in FACS buffer. A sample of cells was stained with a live/dead stain (ef780) to test for live cells and enumerated by flow cytometry. […] When staining for intracellular markers, cells were fixed and permeabilized before staining with markers (ki67). For example, cells were stained with markers for MDSC and F4/80 macrophages and enumerated by flow cytometry. […] Samples were also analyzed for the percentage of gp100+, CD8+ T cells actively proliferating (ki67+ cells) that were present in the tumor.

IFN-γ secretion = test: IFN-γ ELISA / ELISpot of splenocytes from B16F10 tumor bearing mice given donor T cells; format: in vivo, C57BL/6 mice
Text: This example describes the in vitro activation and expansion of donor C57BL/6 pmel-1 splenocytes by INF-γ ELISA and INF-γ Elispot analysis of splenocytes derived from B16F10 melanoma syngeneic tumor model inoculated with Pmel-1 donor splenocytes (T-cells). Briefly, spleens and splenocytes from C57BL-B16F10 tumor bearing mice treated with or without an ENPP1 inhibitor and donor T cells are harvested and purified as described in Example 8. To test for cytokine secretion, the isolated splenocytes are then plated and co-cultured with gp100 peptide on a plate of an ELISpot kit and IFN-γ secretion is detected. The number of spots is counted for each well and summarized for each group. Additionally, or alternatively, IFN-γ secretion is detected with a IFN-γ ELISA test.

4T1-luciferase tumor = 4T1-luciferase tumor model: IR with compound 1, cGAMP and/or anti-CTLA-4; tumor volume and survival; format: in vivo, Balb/c mice; settings: 20 Gy IR + 10 μg cGAMP intratumoral alone
4T1 tumor model = test: Tumor-associated dendritic cells in mouse 4T1 tumor model with or without IR (FACS); format: in vivo, Balb/c mice; settings: intratumoral 100 μL of 1 mM
Protocol: Anaesthetized animals were shielded with a 3.2 mm lead shield with a 15×20 mm aperture where the tumor was placed. […] On the next day, the tumor was extracted and incubated in RPMI+10% FBS with 20 μg/mL DNase I type IV (Sigma-Aldrich) and 1 mg/mL Collagenase from Clostridium histolyticum (Sigma-Aldrich) at 37° C. for 30 min. […] Cells were stained with Live/Dead fixable near-IR dead cell staining kit (Thermo Fisher Scientific), Fc-blocked for 10 min using TruStain fcX and subsequently antibody-stained with CD11c, CD45, and I-A/I-E (all Biolegend). Cells were analyzed using an SH800S cell sorter (Sony) or an LSR II (BD Biosciences).

[1] = target: T1, purified recombinant mouse ENPP1 (Mus musculus, UniProt P06802); test: ENPP1 activity assay using TMP-pNP as a substrate; format: biochemical; settings: TMP-pNP 2 μM, mouse ENPP1 0.5 nM, pH 7.5
T1 sequence (P06802 1-906): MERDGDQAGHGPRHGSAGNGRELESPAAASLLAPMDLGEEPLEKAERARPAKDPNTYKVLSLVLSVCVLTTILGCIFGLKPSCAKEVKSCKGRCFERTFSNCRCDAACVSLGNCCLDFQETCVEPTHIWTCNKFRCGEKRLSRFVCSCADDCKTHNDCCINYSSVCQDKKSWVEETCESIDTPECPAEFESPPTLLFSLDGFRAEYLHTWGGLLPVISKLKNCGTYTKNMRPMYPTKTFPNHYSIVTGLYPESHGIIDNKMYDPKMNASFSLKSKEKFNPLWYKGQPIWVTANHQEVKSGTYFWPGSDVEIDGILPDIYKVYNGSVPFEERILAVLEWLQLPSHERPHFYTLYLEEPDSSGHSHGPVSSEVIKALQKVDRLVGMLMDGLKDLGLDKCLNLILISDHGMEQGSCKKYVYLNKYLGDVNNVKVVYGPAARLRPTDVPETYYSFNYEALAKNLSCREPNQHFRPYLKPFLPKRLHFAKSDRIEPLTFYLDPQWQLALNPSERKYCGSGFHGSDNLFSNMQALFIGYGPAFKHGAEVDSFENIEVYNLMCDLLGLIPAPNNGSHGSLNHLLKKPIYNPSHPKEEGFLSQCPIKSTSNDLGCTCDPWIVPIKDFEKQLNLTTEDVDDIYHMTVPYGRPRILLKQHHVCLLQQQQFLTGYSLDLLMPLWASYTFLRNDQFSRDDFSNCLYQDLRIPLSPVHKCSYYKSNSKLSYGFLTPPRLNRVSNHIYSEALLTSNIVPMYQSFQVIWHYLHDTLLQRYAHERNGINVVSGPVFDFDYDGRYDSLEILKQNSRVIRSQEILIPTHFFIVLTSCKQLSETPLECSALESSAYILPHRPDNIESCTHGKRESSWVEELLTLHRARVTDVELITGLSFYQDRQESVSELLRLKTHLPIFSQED
Protocol: Selected compounds of Table 1, Table 2, Table 3, Table 4, Table 5, or Table 6 and other derivatives were prepared and assessed in an ENPP1 activity assay using thymidine monophosphate paranitrophenol (TMP-pNP) as a substrate. Enzyme reactions were prepared with TMP-pNP (2 μM), 5-fold dilutions of ENPP1 inhibitor, and purified recombinant mouse ENPP1 (0.5 nM) in 100 mM Tris, 150 mM NaCl, 2 mM CaCl2, 200 μM ZnCl2, pH 7.5 at room temperature. Reaction progress was monitored by measuring absorbance at 400 nm of paranitrophenolate produced by the reaction for 20 minutes.

[2] = 50 mg/kg plus donor splenocytes

Protocol for CD14+ IFNB1 expression: Primary human peripheral blood mononucleocyte cells (PBMCs) were isolated by subjecting enriched buffy coat from whole blood to a Percoll density gradient. CD14^+ monocytes were isolated using CD14^+ MicroBeads (Miltenyi). CD14^+ monocyctes were cultured in RPMI supplemented with 2% human serum and 100 U/mL penicillin-streptomycin. […] 24-26 hours following supernatant transfer, total RNA was extracted using Trizol (Thermo Fisher Scientific) and reverse transcribed with Maxima H Minus Reverse Transcriptase (Thermo Fisher Scientific). Real-time RT-PCR was performed in duplicate with AccuPower 2×Greenstar qPCR Master Mix (Bioneer) on a 7900HT Fast Real-Time PCR System (Applied Biosystems). Data were normalized to CD14 expression for each sample. Fold induction was calculated using ΔΔCt.
Supernatant from these cells was transferred to primary CD14^+ human PBMCs. IFNB1 mRNA levels were normalized to CD14 and the fold induction was calculated relative to untreated CD14^+ cells.

## COc1cccc2c(N3CCC(CCP(=O)(O)O)CC3)ncnc12 [Compound 76]
B16F10 melanoma; 5 mg/kg and donor T cells
  tumor size at day 7 compared to PBS with donor cells: smaller reduction in tumor size
B16F10 melanoma; 5 mg/kg plus donor T cells
  percentage of F4/80+ macrophages in tumors compared to PBS with donor T cells: higher
  percentage of MDSC macrophages in tumors compared to PBS with donor T cells: lower
  percentage of live cells in tumors compared to PBS with donor T cells: higher
B16F10 melanoma; 5 mg/kg plus donor splenocytes
  percentage of Thy1.1+ (pmel-1 derived), gp100+, CD8+ donor T cells in tumors compared to PBS with donor splenocytes: higher
  percentage of Thy1.2+ host cells in tumors: declined reciprocally
  percentage of gp100+, CD8+, ki67+ T cells in tumors compared to PBS with donor splenocytes: higher
B16F10 melanoma; 50 mg/kg and donor T cells
  tumor size at day 7 compared to PBS with donor cells: marked reduction in tumor size
B16F10 melanoma; 50 mg/kg plus donor T cells
  percentage of F4/80+ macrophages in tumors compared to PBS with donor T cells: higher
  percentage of MDSC macrophages in tumors compared to PBS with donor T cells: lower
  percentage of live cells in tumors compared to PBS with donor T cells: higher
B16F10 melanoma; [2]
  percentage of Thy1.1+ (pmel-1 derived), gp100+, CD8+ donor T cells in tumors compared to PBS with donor splenocytes: higher
  percentage of Thy1.2+ host cells in tumors: declined reciprocally
  percentage of gp100+, CD8+, ki67+ T cells in tumors compared to PBS with donor splenocytes: higher
IFN-γ secretion; 5 mg/kg plus donor T cells
  IFN-γ secretion compared to PBS with donor T cells: elevated
IFN-γ secretion; 50 mg/kg plus donor T cells
  IFN-γ secretion compared to PBS with donor T cells: elevated

## Nc1nc2c(ncn2[C@@H]2O[C@@H]3COP(=O)(O)O[C@H]4[C@@H](O)[C@H](n5cnc6c(N)ncnc65)O[C@@H]4COP(=O)(O)O[C@@H]2[C@@H]3O)c(=O)[nH]1 [cGAMP, cyclic guanosine monophosphate-adenosine monophosphate]
4T1-luciferase tumor
  effect over IR treatment (tumor): no effect

## COc1cc2ncnc(N3CCC(CCP(=O)(O)O)CC3)c2cc1OC [compound 1]
CD14+ IFNB1 expression; 293T cGAS ENPP1low cells transiently overexpressing ENPP1
  extracellular cGAMP levels: rescued
CD14+ IFNB1 expression; supernatant of ENPP1-overexpressing 293T cGAS ENPP1low cells transferred to CD14+ monocytes
  CD14+ IFNB1 expression: induced
4T1 tumor model; no IR
  tumor-associated leukocyte compositions compared to the PBS control: did not change
4T1 tumor model; tumors pretreated with 20 Gy IR
  tumor associated CD11c+ population: increased

## O=P(O)(O)CCC1CCN(c2ncnc3ccccc23)CC1 [compound 25]
[1]
  IC50: 0.005 to 0.05 µM
